In brackets after ≈: the same amount, converted by molar mass. Counter-ions that a name gives are not always drawn. Like-named read-outs stand apart in the source and are kept apart here.
Key:
Assay in all cases: MIC by agar dilution (Mueller Hinton Agar)
Assay type in all cases: cell-based
Serratia marcescens = conditions: Culture Number 6888, MHA, 35° C., 20 hours, read-out: Minimum Inhibitory Concentration
Description: (§1) The compounds of this invention and their respective pharmacologically acceptable salts have antibiotic activity against a variety of gram-negative bacteria including Escherichia coli, Klebsiella pneumoniae, and Pseudomonas aeruginosa. The compounds are useful for treating bacterial infections in animals, including and most preferably humans. Compounds of the invention are tested for in vitro antimicrobial activity using standard testing procedures such as the determination of minimum inhibitory concentration (MIC) by agar dilution as described in "Methods for Dilution Antimicrobial Susceptibility Tests for Bacteria That Grow Aerobically" (M7-A) Published December 1985 by the National Committee for Clinical Laboratory Standards, 771 East Lancaster Avenue, Villanova, Pa. 19084. Briefly, MIC values are determined in unsupplemented Mueller Hinton Agar (MHA). The compounds tested are diluted serially into molten MHA at 47° C. The agar is poured into petri dishes and allowed to harden. The various bacteria used for testing are grown overnight on MHA at 35° C. and transferred to Tryptiease Soy Broth (TSB) until a turbidity of 0.5 McFarland standard is obtained. The bacteria are diluted one to 20 in TSB and inoculated on the plates (1 μl using a Steers replicator). […] The MIC test results of two typical compounds of this invention, Compound 14 which is (3S)-3-[2-(2-Amino-4-thiazolyl)-Z-(2)-carboxyisopropyloxyimino)acetamido]- 1-[(3-carboxy-4-pyridon-6-yl)-carbonylamino-1-(2-imidazolidone-3-yl)sulfonylaminocarbonyl]-2-azetidinone trisodium salt and Compound 17 which is (3S)-3-[2-(2-Amino-4-thiazolyl)-Z-(2)-(carboxyisopropyloxyamino)acetamido]-1-[(3-hydroxyaminocarbonyl-4-pyridon-6-yl)carbonylamino-1-(2-imidazolidone-3-yl)sulfonylaminocarbonyl]-2-azetidinone, are given in Table I.

Streptococcus faecalis = conditions: Enterococcus faecalis; Culture Number 694; MHA, 35° C., 20 hours; read-out: Minimum Inhibitory Concentration
Description: as §1

Citrobacter freundli = conditions: Culture Number 3507, MHA, 35° C., 20 hours, read-out: Minimum Inhibitory Concentration
Description: as §1

Escherichia coli = conditions: 20 h, 35° C., read-out: Minimum Inhibitory Concentration
Description: as §1

Klebsiella pneumoniae = conditions: Culture Number 58, MHA, 35° C., 20 hours, read-out: Minimum Inhibitory Concentration
Description: as §1

Staphylococcus aureus = conditions: MHA, 35° C., 20 hours; for MIC: Staphylococcus aureus, Culture Number 9218, read-out: Minimum Inhibitory Concentration
Description: as §1

Enterobacter cloacae = conditions: 20 h, 35° C., read-out: Minimum Inhibitory Concentration
Description: as §1

Pseudomonas aeruginosa = system: Pseudomonas aeruginosa
Description: as §1

Proteus vulgaris = conditions: Culture Number 9679, MHA, 35° C., 20 hours, read-out: Minimum Inhibitory Concentration
Description: as §1

Klebsiella oxytoca = conditions: 20 h, 35° C., read-out: Minimum Inhibitory Concentration
Description: as §1

Streptococcus pyogenes = conditions: Culture Number 152, MHA, 35° C., 20 hours, read-out: Minimum Inhibitory Concentration
Description: as §1

Streptococcus pneumoniae = conditions: Culture Number 41, MHA, 35° C., 20 hours, read-out: Minimum Inhibitory Concentration
Description: as §1

[1] = 20 h, Culture Number 231, MHA, 35° C., 20 hours, read-out: Minimum Inhibitory Concentration
[2] = 20 h, Culture Number 9191, MHA, 35° C., 20 hours, read-out: Minimum Inhibitory Concentration

MIC (Serratia marcescens)	MIC (Streptococcus faecalis)	MIC (Citrobacter freundli)	MIC (Escherichia coli; Culture Number 9379, MHA)	MIC (Escherichia coli; Culture Number 9380, MHA)	MIC (Escherichia coli; Culture Number 9451, MHA)	MIC (Klebsiella pneumoniae)	MIC (Staphylococcus aureus)	MIC (Enterobacter cloacae; Culture Number 9381, MHA)	MIC (Enterobacter cloacae; Culture Number 9382, MHA)	MIC (Pseudomonas aeruginosa; [1])	MIC (Pseudomonas aeruginosa; [2])	MIC (Proteus vulgaris)	MIC (Klebsiella oxytoca; Culture Number 9383, MHA)	MIC (Klebsiella oxytoca; Culture Number 9384, MHA)	MIC (Streptococcus pyogenes)	MIC (Streptococcus pneumoniae)	MIC (Pseudomonas aeruginosa; pseudomonas aeruginosa Culture No. 231, given in text for Compound 18, read-out: M/C)	SMILES	Minimum Inhibitory Concentration (Staphylococcus aureus; Culture Number 3665)	Minimum Inhibitory Concentration (Staphylococcus aureus; Culture Number 6685)
2 µg/mL (≈ 2.75 µM)	> 128 µg/mL	0.25 µg/mL (≈ 0.344 µM)	0.5 µg/mL (≈ 0.687 µM)	0.5 µg/mL (≈ 0.687 µM)	0.25 µg/mL (≈ 0.344 µM)	0.5 µg/mL (≈ 0.687 µM)	> 128 µg/mL	64 µg/mL (≈ 88 µM)	2 µg/mL (≈ 2.75 µM)	4 µg/mL (≈ 5.5 µM)	4 µg/mL (≈ 5.5 µM)	0.125 µg/mL (≈ 0.172 µM)	4 µg/mL (≈ 5.5 µM)	0.5 µg/mL (≈ 0.687 µM)	4 µg/mL (≈ 5.5 µM)	64 µg/mL (≈ 88 µM)		CC(C)(O/N=C(\C(=O)N[C@H]1CN(C(=O)NS(=O)(=O)N2CCN(NC(=O)c3cc(=O)c(C(=O)NO)c[nH]3)C2=O)C1=O)c1csc(N)n1)C(=O)O [Compound 17, (3S)-3-[2-(2-Amino-4-thiazolyl)-Z-(2)-(carboxyisopropyloxyamino)acetamido]-1-[(3-hydroxyaminocarbonyl-4-pyridon-6-yl)carbonylamino-1-(2-imidazolidone-3-yl)sulfonylaminocarbonyl]-2-azetidinone]	> 128 µg/mL	> 128 µg/mL
0.5 µg/mL	> 128 µg/mL	0.25 µg/mL	0.25 µg/mL	0.125 µg/mL	0.125 µg/mL	0.5 µg/mL	> 128 µg/mL	64 µg/mL	0.5 µg/mL	0.5 µg/mL	1 µg/mL	0.06 µg/mL	4 µg/mL	0.25 µg/mL	4 µg/mL	64 µg/mL		CC(C)(O/N=C(\C(=O)N[C@H]1CN(C(=O)NS(=O)(=O)N2CCN(NC(=O)c3cc(=O)c(C(=O)O)c[nH]3)C2=O)C1=O)c1csc(N)n1)C(=O)O [Compound 14, (3S)-3-[2-(2-Amino-4-thiazolyl)-Z-(2)-carboxyisopropyloxyimino)acetamido]-1-[(3-carboxy-4-pyridon-6-yl)-carbonylamino-1-(2-imidazolidone-3-yl)sulfonylaminocarbonyl]-2-azetidinone trisodium salt]	> 128 µg/mL	> 128 µg/mL
																	8 µg/mL (≈ 11.2 µM)	CC(C)(O/N=C(\C(=O)N[C@H]1CN(C(=O)NS(=O)(=O)N2CCN(NC(=O)c3cc(=O)c(C(N)=O)c[nH]3)C2=O)C1=O)c1csc(N)n1)C(=O)O [Compound 18]		

Source: patent US5001235A, “Antibiotic beta-lactams containing a pyridone carboxylic acid or acid derivative” (The Upjohn Company, priority 1989, dated 1991)
